# Data taken from publication PMC10046037, “GABRG2 Variants Associated with Febrile Seizures” (Biomolecules, 2023).
# Target: T1, α1β3γ2 GABAA receptor, γ2F457S variant (Homo sapiens, UniProt P14867+P18507+P28472, F457S)
# T1 construct: expressed in transfected cells; host or cells: HEK293T
# T1 sequence (P14867 28-456): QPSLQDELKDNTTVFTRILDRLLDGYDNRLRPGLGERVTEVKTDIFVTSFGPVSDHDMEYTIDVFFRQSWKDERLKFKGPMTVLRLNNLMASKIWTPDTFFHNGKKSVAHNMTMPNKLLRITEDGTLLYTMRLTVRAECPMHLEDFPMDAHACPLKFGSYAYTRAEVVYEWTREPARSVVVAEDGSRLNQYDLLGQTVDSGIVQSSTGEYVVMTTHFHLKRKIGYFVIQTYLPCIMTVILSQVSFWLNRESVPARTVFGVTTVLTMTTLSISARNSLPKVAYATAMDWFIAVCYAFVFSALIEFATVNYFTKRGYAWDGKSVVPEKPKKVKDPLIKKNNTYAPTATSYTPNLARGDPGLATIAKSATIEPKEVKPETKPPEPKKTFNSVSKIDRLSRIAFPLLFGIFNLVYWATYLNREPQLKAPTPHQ
# T1 sequence (P28472 26-473 isoform P28472-2): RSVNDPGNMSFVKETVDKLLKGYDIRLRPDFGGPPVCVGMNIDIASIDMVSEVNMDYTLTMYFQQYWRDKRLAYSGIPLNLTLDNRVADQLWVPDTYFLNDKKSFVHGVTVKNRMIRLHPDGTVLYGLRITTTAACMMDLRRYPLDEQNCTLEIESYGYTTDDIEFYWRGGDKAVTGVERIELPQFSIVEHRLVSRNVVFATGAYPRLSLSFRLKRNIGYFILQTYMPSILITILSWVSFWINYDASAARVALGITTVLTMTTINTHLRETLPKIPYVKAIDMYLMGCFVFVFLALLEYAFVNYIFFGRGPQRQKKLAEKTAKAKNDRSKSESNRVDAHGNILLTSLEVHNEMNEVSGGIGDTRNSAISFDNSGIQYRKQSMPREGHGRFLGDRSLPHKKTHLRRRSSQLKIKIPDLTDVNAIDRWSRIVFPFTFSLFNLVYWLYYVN
# T1 sequence (P18507 40-475 F457S): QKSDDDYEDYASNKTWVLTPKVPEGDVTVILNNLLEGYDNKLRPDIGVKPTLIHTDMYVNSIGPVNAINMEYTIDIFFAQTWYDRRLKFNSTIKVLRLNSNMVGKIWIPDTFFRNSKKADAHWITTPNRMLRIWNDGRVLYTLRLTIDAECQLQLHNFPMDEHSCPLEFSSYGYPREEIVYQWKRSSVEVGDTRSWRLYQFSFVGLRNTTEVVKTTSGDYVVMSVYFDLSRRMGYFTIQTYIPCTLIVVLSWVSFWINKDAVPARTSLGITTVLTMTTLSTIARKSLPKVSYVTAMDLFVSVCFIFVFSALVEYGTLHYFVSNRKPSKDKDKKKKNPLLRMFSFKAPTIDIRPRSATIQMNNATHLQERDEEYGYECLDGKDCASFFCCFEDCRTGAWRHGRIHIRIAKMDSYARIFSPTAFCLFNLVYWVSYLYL
# Test: Automated patch clamp of GABA-elicited currents (SyncroPatch 384PE), γ2F457S
# Type: cell-based
# Settings: mean
# Description: The coding sequences of human α1 (GABRA1, NM_000806), β3 (GABRB3, NM_021912), and γ2 (GABRG2, NM_198904.2) GABAAR subunits were subcloned into the pcDNA3.1 expression vectors (Invitrogen, Waltham, MA, USA).
# HEK293T cells (ATCC, CRL-11268) were cultured at 37 °C in a humidified 5% CO2 incubator and maintained in Dulbecco’s modified Eagle’s medium (Invitrogen) supplemented with 10% fetal bovine serum (Life Technologies, Carlsbad, CA, USA), and 100 IU/mL of penicillin/streptomycin (Life Technologies). For the expression experiments, 4 × 10^5 cells were transfected using polyethylenimine (PEI) reagent (40 kD, Polysciences, Warrington, PA, USA) at a DNA: to transfection reagent ratio of 1:2.5 and harvested 36 h after transfection. To express WT and variant α1β3γ2 receptors, a total of 3 µg of α1, β3, and γ2 (WT or mutant) subunit cDNAs were transfected at a ratio of 1:1:1 into 60 mm culture dishes. For the mock-transfected condition, an empty pcDNA3.1 vector was added for a final cDNA transfection amount of 3 μg. For the electrophysiology experiments, 2.5 × 10^5 cells were plated in 100 mm culture dishes and transfected after 24 h with 3 μg of cDNA of each α1, β3, γ2 (wild-type or mutant) subunit, using X-tremeGENE HP DNA transfection Reagent (Roche Diagnostics, Basel, Switzerland), following the manufacturer’s protocol. Recordings were obtained forty-eight hours after transfection.
# Whole-cell patch clamp recordings were conducted according to the manufacturer’s standard procedure for the SyncroPatch 384 [31]. Whole-cell voltage-clamp recordings were performed at room temperature on HEK293T cells 48 h after transfection with GABAAR subunits, using the SyncroPatch 384PE (Nanion Technologies, Munich, Germany). Cells, at a concentration of 400,000 cells/mL, were harvested in suspension in external solution containing 140 mM of NaCl, 2 mM of CaCl2, 4 mM of KCl, 1 mM of MgCl2, 5 mM of glucose, and 10 mM of HEPES (pH 7.4 with NaOH, 298 mOsm). The cells were loaded in a multi-hole (4 holes per well) 384-well Nanion patch clamp (NPC) chip with a thick borosilicate glass bottom and an average resistance pore size of […]. Built-in electrophysiological protocols were used, and the data were digitized using PatchControl 384 (Nanion Technologies) application. Using PatchControl 384, electrophysiological parameters, such as seal resistance, capacitance, and series resistance, were determined for each well after the application of a test pulse, and subsequently monitored over time. […] The currents were normalized to the maximal response of each well, and the concentration–response curves were calculated from single-point additions. The EC50 values for each variant or wild-type receptor were calculated across multiple wells for each experimental condition.
smiles,measurement,setting,value
"NCCCC(=O)O [GABA, γ-aminobutyric acid]",Deactivation,"1 mM GABA for 5 ms, HEK293T, -80 mV",224.8 ms
same,IMAX (maximal GABA-evoked peak current),"1 mM GABA for 5 ms, HEK293T",0.44 nA
same,IMAX variant/IMAX WT,1 mM GABA,21.96%
same,Rise Time,"10–90% rise time, 1 mM GABA for 5 ms, HEK293T",60.51 ms
